pIC50: −log10 of the molar value. A value given as a limit tells only on which side of the number the result lay.

Human Factor D, sequence (P00746 26-253): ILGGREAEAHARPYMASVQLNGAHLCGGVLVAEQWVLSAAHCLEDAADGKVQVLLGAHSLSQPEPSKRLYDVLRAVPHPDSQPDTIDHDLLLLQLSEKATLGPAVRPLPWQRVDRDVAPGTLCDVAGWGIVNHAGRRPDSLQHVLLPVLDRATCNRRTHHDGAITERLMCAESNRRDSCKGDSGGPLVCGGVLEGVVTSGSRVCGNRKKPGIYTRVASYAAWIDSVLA

The assay concerns the target Human Factor D (Homo sapiens (Human), UniProt P00746). In words: Human Factor D Assay. The format is biochemical. Conditions: Human Factor D, Table 3; read-out: IC50. Put shortly: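 Thioester cleavage assay: human Factor D (serum-derived, 80 nM final), substrate Z-L-Lys-SBzl with DTNB, both 100 μM final, after 5 min compound preincubation at room temperature.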
For `CC(=O)c1cccc(NC(=O)[C@@H]2C[C@@H](F)CN2C(=O)Cn2nc(C(C)=O)c3cc(-c4cnc(C)nc4)ccc32)n1` [Compound 584, (2S,4R)-1-(2-(3-Acetyl-5-(2-methylpyrimidin-5-yl)-1H-indazol-1-yl)acetyl)-N-(6-acetylpyridin-2-yl)-4-fluoropyrrolidine-2-carboxamide], the negative logarithm of the IC50 (pIC50) (as a rule, the negative decadic logarithm of the IC50, by convention in mol/L) was over 6.00.
As to `CC(=O)c1nn(CC(=O)N2CCC[C@H]2C(=O)Nc2cccc(C)n2)c2ccc(-c3ccc4ccccc4c3)cc12` [Compound 585, (S)-1-(2-(3-Acetyl-5-(naphthalen-2-yl)-1H-indazol-1-yl)acetyl)-N-(6-methylpyridin-2-yl)pyrrolidine-2-carboxamide], the negative-log IC50 (pIC50) was under 5.00.
The value for `CC(=O)c1nn(CC(=O)N2CC[C@H]2C(=O)Nc2cccc(C)n2)c2ccc(-c3ccc4ccccc4c3)cc12` [Compound 587, (S)-1-(2-(3-Acetyl-5-(naphthalen-2-yl)-1H-indazol-1-yl)acetyl)-N-(6-methylpyridin-2-yl)azetidine-2-carboxamide] was under 5.00; that for `CC(=O)c1nn(CC(=O)N2CC[C@H]2C(=O)Nc2cccc(C)n2)c2ccc(-c3ccc(C)nc3)cc12` [Compound 588, (S)-1-(2-(3-Acetyl-5-(6-methylpyridin-3-yl)-1H-indazol-1-yl)acetyl)-N-(6-methylpyridin-2-yl)azetidine-2-carboxamide] was under 5.00.
The value for `CC(=O)c1nn(CC(=O)N2CCC[C@H]2C(=O)Nc2cccc(C)n2)c2ccc(-c3ccc4cccnc4c3)cc12` [Compound 589, (S)-1-(2-(3-Acetyl-5-(quinolin-7-yl)-1H-indazol-1-yl)acetyl)-N-(6-methylpyridin-2-yl)pyrrolidine-2-carboxamide] was over 6.00; that for `CC(=O)c1nn(CC(=O)N2C[C@H](F)C[C@H]2C(=O)Nc2cccc(Br)n2)c2ccc(-c3cnc(OC4CS(=O)(=O)C4)nc3)cc12` [Compound 591, (2S,4R)-1-(2-(3-Acetyl-5-(2-((1,1-dioxidothietan-3-yl)oxy)pyrimidin-5-yl)-1H-indazol-1-yl)acetyl)-N-(6-bromopyridin-2-yl)-4-fluoropyrrolidine-2-carboxamide] was over 6.00; that for `CC(=O)c1nn(CC(=O)N2CCCC[C@@H]2C(=O)Nc2cccc(Br)n2)c2ccc(-c3cnc(C)nc3)cc12` [Compound 592, (R)-1-(2-(3-acetyl-5-(2-methylpyrimidin-5-yl)-1H-indazol-1-yl)acetyl)-N-(6-bromopyridin-2-yl)piperidine-2-carboxamide] was under 5.00.
The value for `CC(=O)c1nn(CC(=O)N2CCCC[C@H]2C(=O)Nc2cccc(Br)n2)c2ccc(-c3cnc(C)nc3)cc12` [Compound 593, (S)-1-(2-(3-Acetyl-5-(2-methylpyrimidin-5-yl)-1H-indazol-1-yl)acetyl)-N-(6-bromopyridin-2-yl)piperidine-2-carboxamide] was over 6.00.
Consider `CC(=O)c1cn(CCN2C[C@H](F)C[C@H]2C(=O)Nc2cccc(OC(F)(F)F)c2F)c2ccc(-c3cnc(C)nc3)cc12` [Compound 594, (2S,4R)-1-(2-(3-Acetyl-5-(2-methylpyrimidin-5-yl)-1H-indol-1-yl)ethyl)-4-fluoro-N-(2-fluoro-3-(trifluoromethoxy)phenyl)pyrrolidine-2-carboxamide], for which the pIC50 is under 5.00.
Then `COC(=O)c1ncc(-c2ccc3c(c2)c(C(C)=O)nn3CC(=O)N2C[C@H](F)C[C@H]2C(=O)Nc2cccc(Br)n2)cn1` [Compound 596, methyl 5-(3-Acetyl-1-(2-((2S,4R)-2-((6-bromopyridin-2-yl)carbamoyl)-4-fluoropyrrolidin-1-yl)-2-oxoethyl)-1H-indazol-5-yl)pyrimidine-2-carboxylate], with over 6.00; and `CC(=O)Nc1ncc(-c2ccc3c(c2)c(C(C)=O)nn3CC(=O)N2C[C@H](F)C[C@H]2C(=O)Nc2cccc(Br)n2)cn1` [Compound 597, (2S,4R)-1-(2-(5-(2-Acetamidopyrimidin-5-yl)-3-acetyl-1H-indazol-1-yl)acetyl)-N-(6-bromopyridin-2-yl)-4-fluoropyrrolidine-2-carboxamide], with over 6.00.

Values taken from US10287301B2 (Achillion Pharmaceuticals, Inc., priority 2015, dated 2019).
